Results as given in article PMC5517430, “2,3,7,8-Tetrachlorodibenzo-p-dioxin (TCDD)-elicited effects on bile acid homeostasis: Alterations in biosynthesis, enterohepatic circulation, and microbial metabolism” (Scientific Reports, 2017).

Assays:
[1] = test system: bsh and baiCD of gut microbiota; assay: Degenerate qRT-PCR of bacterial functional genes in fecal pellets; assay type: in vivo, mouse; conditions: male mice, 30 µg/kg TCDD
Text: The bsh Hidden Markov Model (HMM) constructed by the Ribosomal Database Project consisted of 12 vetted seed sequences from Lactobacillus, Clostridium, Roseburia, Eubacterium, Butyrivibrio, and Streptococcus species, while the baiCD HMM consisted of 10 vetted seed sequences from Clostridium and Lachnospiraceae species. Using these models, more inclusive sequence sets were created for bsh and baiCD within the ‘FunGene functional gene pipeline & repository’[80] by extracting sequences from GenBank. Setting the HMM consensus percent identity cut-off to ≥40%, nucleotide sequences of bsh and baiCD were obtained from 2633 and 129 bacterial organisms, respectively. Given the diversity of bacterial organisms found to express bsh, the 2633 sequences from FunGene were separated into 4 groups based on nucleotide similarity determined through construction of a phylogenetic tree (Group 1: 423, Group 2: 330, Group 3: 955, Group 4: 925). Bacterial classifications (genus level) of the bsh sequences in each phylogenetic group are depicted in Fig. 8A1. […] The Primer Design terminal program developed by the Ribosomal Database Project (https://github.com/rdpstaff/PrimerDesign) was used to design degenerate primer sets which target conserved regions within baiCD and each phylogenetic group of bsh (Supplementary Table S2). To estimate the overall abundance of bile acid metabolism genes within the gut microbiome, primer sets were selected to target ≥75% of the baiCD sequences and the sequences within each bsh group.
Frozen fecal pellets were crushed into a powder and bacterial DNA was isolated using the QIAamp DNA Stool Mini Kit (Qiagen, Valencia, CA). To investigate bile acid metabolism loci, qRT-PCR was performed on a Bio-Rad CFX Connect Real-Time PCR Detection System as previously described. Gene expression relative to vehicle control was calculated using the 2^−∆∆CT method, with each fecal sample extract normalized to total bacterial DNA levels using universal primers targeting the 16 S ribosomal RNA gene[81]. Gene levels are plotted relative to vehicle control.

serum ALP = assay: Serum alkaline phosphatase (ALP) activity, commercial kit; assay type: in vivo, mouse; conditions: male mice, 30 µg/kg TCDD every 4 d for 28 d
Method: At 25d after the initial dose (PND53), fecal pellets from the previous 24 hours (h) were collected from each cage (4 mice per cage) and stored at −80 °C. At 28d after the initial exposure (PND56), mice (fasted for 6 h) were weighed and blood was collected from the submandibular vein prior to cervical dislocation. The gallbladder length, width, and depth were measured using a micro-caliper. Its volume was calculated assuming an ellipsoid shape: volume (µL) = length (mm) × width (mm) × depth (mm) × π/6[63], [64]. The distal ileum (10 cm section extending from the caecum toward the jejunum) was removed, flushed with Ca^2+/Mg^2+-free phosphate buffered saline (PBS; Sigma), and opened longitudinally. The epithelial lining was scraped into a vial containing TRIzol (Invitrogen, Carlsbad, CA), frozen in liquid nitrogen, and stored at −80 °C. Liver, gonadal white adipose tissue (gWAT), and brown adipose tissue were removed, weighed, frozen in liquid nitrogen, and stored at −80 °C. Serum alkaline phosphatase (ALP) activity was determined using a commercial kit (Pointe Scientific, Canton, MI).

Gpbar1 = assay: Hepatic qRT-PCR; assay type: in vivo; conditions: Mus musculus; male mice, 30 µg/kg TCDD every 4 d for 28 d; read-out: Gpbar1 hepatic expression (qRT-PCR), fold induction
Method: Given the low (≤10) read counts for Gpbar1 in the RNA-Seq dataset, differential expression was confirmed by qRT-PCR[13]. Total hepatic RNA was reverse transcribed by SuperScript II (Invitrogen) using oligo dT primer according to the manufacturer’s protocol. PCR amplification was conducted on a Bio-Rad CFX Connect Real-Time PCR Detection System. Gene expression relative to vehicle control was calculated using the 2^−∆∆CT method, where each sample was normalized to the geometric mean of 3 housekeeping genes (Actb, Gapdh, and Hprt). Gene expression data are plotted relative to vehicle control. Forward and reverse primer sequences are provided in Supplementary Table S2.

liver of C57BL/6 mice = assay: QuHAnT quantitation of Oil Red O staining (hepatic fat accumulation); assay type: in vivo, mouse; conditions: 30 µg/kg TCDD every 4 d for 28 d
Method: All processing was performed by the MSU Investigative Histopathology Laboratory (https://humanpathology.natsci.msu.edu/). Formalin-fixed hepatic tissues were vacuum infiltrated with paraffin using a Tissue-Tek VIP 2000 tissue processor (Sakura) and embedded with the Thermo Fisher HistoCentre III Embedding Center (Thermo Fisher, Waltham, Massachusetts). Paraffin blocks were sectioned at 4–5 µm with a Reichert Jung 2030 rotary microtome (Reichert, Depew, New York) and dried for 2–24 h at 56 °C to ensure adherence to the slides. For lipid staining, liver sections frozen in O.C.T. compound were sectioned at 6 µm, fixed in 10% NBF for 5 min, rinsed with water, and immersed in 100% propylene glycol for 5 min. Liver sections were stained with hematoxylin and eosin (H&E) for general histological assessment. Lipids were stained using Oil Red O (ORO) as previously described. […]
Quantitation of ORO staining was performed using the Quantitative Histological Analysis Tool (QuHAnT)[66]. […] Using ImageJ (http://rsb.info.nih.gov.ij/), optimal hue, saturation, and value (HSV) image segmentation thresholds for feature extraction were determined to be 0 to 50 and 225 to 255 (hue), 125 to 255 (saturation), and 0 to 255 (value), while optimal total tissue feature extraction thresholds were 0 to 255 (hue), 20 to 255 (saturation), and 0 to 255 (value). […]

[2] = test system: hepatic taurine and glycine; design: method as in PMID 26582802; conditions: female mice, cited from earlier work
hepatic cholesterol = test system: hepatic cholesterol; design: method as in PMID 28238261; conditions: male C57BL/6 mice, 30 µg/kg TCDD every 4 d for 28 d, cited from earlier work
[3] = normalized to 16S rRNA gene, n = 2

Question: Which “bsh gene levels within phylogenetic group 4” value [1] does the source give for `Clc1cc2c(cc1Cl)Oc1cc(Cl)c(Cl)cc1O2` [TCDD, 2,3,7,8-tetrachlorodibenzo-p-dioxin] here?
Answer: unaffected

Question: What about the “bsh gene levels within phylogenetic groups 1, 2, and 3” value [1] of the same compound?
Answer: increased

Question: And the “Clostridium baiCD level (validated primers), fold increase” value [1, 3]?
Answer: 2.1 fold

Question: And the “bsh gene level, group 1 primer set 7, fold increase” value [1, 3]?
Answer: 21.8 fold

Question: What about the “bsh gene level, group 1 primer set 8, fold increase” value [1, 3] of the same compound?
Answer: 7.3 fold

Question: What about the “bsh gene level, group 2 primer set 2, fold increase” value [1, 3] of the same compound?
Answer: 7.6 fold

Question: And the “bsh gene level, group 2 primer set 11, fold increase” value [1, 3]?
Answer: 7.5 fold

Question: And the “bsh gene level, group 3 primer set 9, fold increase” value [1, 3]?
Answer: 4.2 fold

Question: And the “Serum alkaline phosphatase (ALP) activity” value (serum ALP)?
Answer: unchanged

Question: What about the fold induction at 0.03 mg/kg (Gpbar1) of the same compound?
Answer: 4.3

Question: And the “Hepatic fat accumulation (ORO), males compared to females” value (liver of C57BL/6 mice)?
Answer: 6.2 fold

Question: And the “Hepatic taurine level, max fold increase” value ([2]; p = 0.05)?
Answer: 1.4 fold

Question: And the “Hepatic glycine level, max fold increase” value ([2]; p = 0.10)?
Answer: 20.3 fold

Question: And the “Hepatic cholesterol ester level, fold increase” value (hepatic cholesterol)?
Answer: 11.3 fold

Question: What about the “Hepatic cholesterol level, fold increase” value (hepatic cholesterol; not confirmed by high resolution MS/MS) of the same compound?
Answer: 9.0 fold
